Like-named read-outs stand apart in the source and are kept apart here.
Assay: In vivo pharmacokinetic study, plasma and brain
Parameters: species or system male Wistar rats
Details: male, Wistar, po, rat; for AUC(0-t) / Cmax / MRT / Tmax / half-life: 10 mg/kg p.o.; for half-life: read-out: t0.5 (terminal half-life)
Method: Subsequently, the pharmacokinetic profile of 27 and 28 was assessed in male Wistar rats after single intragastric administration at the dose of 10 mg/kg. The studied compounds were rapidly absorbed and crossed the blood–brain barrier, reaching the Cmax in 5 min in both plasma and brain.
For LC–MS/MS analyses, an HPLC Nexera system (Shimadzu, Kyoto, Japan) combined with the triple quadrupole API 3200 mass spectrometer (SCIEX, Framingham, MA, USA) interfaced via an electrospray source and controlled by Analyst software version 1.5.2 (SCIEX, Framingham, MA, USA) was applied.
The chromatographic separation was performed on Acclaim Polar Advantage II (3.0 mm × 74 mm, 3 μm, 120A, Dionex, USA) analytical column using the mobile phase composed of eluent A, HPLC grade acetonitrile acidified with 0.1% (v/v) formic acid, and eluent B, HPLC grade water with 0.1% (v/v) formic acid. The elution gradient started with 90% of eluent B, increasing to 90% of eluent A over 5 min, returned to 90% of eluent B over 5 min, and maintained at 90% of eluent B for 5 min. The mobile phase flow rate was set at 400 μL/min. The injection volume was 20 μL, and the total time of analysis was 15 min. The temperatures of the column thermostat and the autosampler were set at 40 and 10 °C, respectively.
For increased sensitivity and selectivity, the MS/MS data acquisition was performed in the selected reaction monitoring (SRM) mode. The ions measured were m/z 585.1 (Q1) and m/z 516.2 (Q3) for compounds 27 and 28 and m/z 305 (Q1) and m/z 248 (Q3) for IS. The quantification was done via peak area ratio.
Protein precipitation with acetonitrile was used for purification of plasma and brain homogenates. The whole brain was homogenized using an electric tissue homogenizer in an appropriate amount of phosphate buffer (pH 7.4) in 1:2.5 ratio. Thereafter, a volume of 100 μL of plasma or brain homogenate was transferred to 2 mL Eppendorf tubes, and a 5 μL aliquot of the internal standard (IS, PH002437, Merck, Darmstadt, Germany) in working solution (5 μg/mL) was added and vortex-mixed for 10 s. Thereafter, 200 μL of acetonitrile was added and mixed for 20 min, followed by centrifugation (28 672g) for 10 min at 4 °C. The supernatant was transferred to chromatographic vials, and 20 μL was injected into the analytical column.
A group of 64 male, 8-week-old, Wistar strain outbred rats weighing between 200 and 220 g each were purchased from the Animal House at the Faculty of Pharmacy, Jagiellonian University Medical College, Krakow (Poland) and housed in standard polycarbonate cages, in groups of four animals per cage. Environmental conditions during the study were constant: relative humidity 50–60%, temperature 22 ± 2 °C, normal 12 h light–dark cycle (7 a.m. to 7 p.m. light). Standard rodent chow and water were available ad libitum. Compounds 27 and 28 were dissolved in saline and administered by intragastric gavage at a dose of 10 mg/kg, and the animals were sacrificed at specific time-points: 0 min, predose (n = 4), 5 min (n = 4), 15 min (n = 4), 30 min (n = 4), 60 min (n = 4), 120 min (n = 4), 240 min (n = 4), and 480 min (n = 4) after administration. Animals were deeply anaesthetized by ip injections of 50 mg/kg ketamine plus 8 mg/kg xylazine before sacrifice. First, the blood was collected into heparinized tubes, and the blood samples were centrifuged at 1000g for 10 min to obtain plasma. Following the animals’ euthanasia, the whole brain was collected. The plasma and brain samples were immediately frozen at −80 °C for future analysis. All experimental procedures were carried out in accordance with EU Directive 2010/63/EU and approved by the I Local Ethics Committee for Experiments on Animals of the Jagiellonian University in Krakow, Poland (No. 83/2018).

Compound | Kp (brain/plasma, 10 mg/kg intragastric, read-out: brain/plasma ratio) | AUC(0-t) (brain) [ng·h/mL] | Cmax (brain) [ng/g] | MRT (brain) [h] | Tmax (brain) [min] | half-life (brain) [min] | AUC(0-t) (plasma) [ng·h/mL] | Cmax (plasma) [ng/mL] | MRT (plasma) [h] | Tmax (plasma) [min] | half-life (plasma) [min]
O=C(N[C@@H]1CCNC1)c1ccn(S(=O)(=O)c2cccc(Cl)c2)c1-c1ccc(F)cc1 [Compound 27, (R)-2-(4-Fluorophenyl)-1-[(3-chlorophenyl)sulfonyl]-N-(pyrrolidin-3-yl)-1H-pyrrole-3-carboxamide] | 0.63 | 812 | 427 | 3.02 | 5 | 251 | 1290 | 1040 | 2.72 | 5 | 118
O=C(N[C@H]1CCNC1)c1ccn(S(=O)(=O)c2cccc(Cl)c2)c1-c1ccc(F)cc1 [Compound 28, (S)-2-(4-Fluorophenyl)-1-[(3-chlorophenyl)sulfonyl]-N-(pyrrolidin-3-yl)-1H-pyrrole-3-carboxamide] |  | 289 | 51.7 | 4.43 | 5 |  | 3390 | 3500 | 3.35 | 5 | 297
